Where two headings read alike, the source gives them in different places.
Tested on: NCI-H1975 (EGFR-L858R-T790M) cells
Test: Inhibitory activity on proliferation of NCI-H1975 (EGFR-L858R-T790M) cells (CTG, 72 h)
Assay type: cell-based
Settings: Homo sapiens
Method in brief: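 IC50 values come from S-shaped dose-survival fits of CTG signal expressed as % of vehicle. Compound exposure lasted 72 h at 37 °C with 0.1% DMSO; seeding was 3000 A431 cells/well in DMEM+10% FBS and 1000 NCI-H1975 cells/well in RPMI1640+10% FBS.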

[1] = read-out: IC50 (value in brackets)

SMILES | IC50 (read-out: IC50 (class symbol)) | IC50 [1]
COc1cc(N2CCC(CN3CCN(c4ccc(N5CCC(=O)NC5=O)cc4)CC3)CC2)c(-c2cnn(C)c2)cc1Nc1ncc(Cl)c(Nc2ccc(-c3ccccc3)cc2P(C)(C)=O)n1 [Compound 136, 1-(4-(4-((1-(4-((5-chloro-4-((3-(dimethylphosphoryl)-[1,1′-biphenyl]-4-yl)amino)pyrimidin-2-yl)amino)-5-methoxy-2-(1-methyl-1H-pyrazol-4-yl)phenyl)piperidin-4-yl)methyl)piperazin-1-yl)phenyl)dihydropyrimidine-2,4(1H,3H)-dione] | 100 to 500 nM | 393 nM
COc1cc(N2CCC(CN3CCN(c4ccc5c(c4)CN(C4CCC(=O)NC4=O)C5=O)CC3)CC2)c(-c2cnn(C)c2)cc1Nc1ncc(Cl)c(Nc2ccccc2P(C)(C)=O)n1 (stereo not shown) [Compound 140, 3-(5-(4-((1-(4-((5-chloro-4-((2-(dimethylphosphoryl)phenyl)amino)pyrimidin-2-yl)amino)-5-methoxy-2-(1-methyl-1H-pyrazol-4-yl)phenyl)piperidin-4-yl)methyl)piperazin-1-yl)-1-oxoisoindolin-2-yl)piperidine-2,6-dione] | < 100 nM | 32 nM
COc1cc(N2CCN(C3CN(c4ccc5c(c4)C(=O)N(C4CCC(=O)NC4=O)C5=O)C3)CC2)c(-c2cnn(C)c2)cc1Nc1ncc(Cl)c(Nc2ccccc2P(C)(C)=O)n1 (stereo not shown) [Compound 149, 5-(3-(4-(4-((5-chloro-4-((2-(dimethylphosphoryl)phenyl)amino)pyrimidin-2-yl)amino)-5-methoxy-2-(1-methyl-1H-pyrazol-4-yl)phenyl)piperazin-1-yl)azetidin-1-yl)-2-(2,6-dioxopiperidin-3-yl)isoindoline-1,3-dione] | 100 to 500 nM | 116 nM
COc1cc(N2CCN(C3CN(c4ccc5c(c4)C(=O)N(C4CCC(=O)NC4=O)C5=O)C3)CC2)c(-c2cnn(C)c2)cc1Nc1ncc(Br)c(Nc2ccccc2P(C)(C)=O)n1 (stereo not shown) [Compound 151, 5-(3-(4-(4-((5-bromo-4-((2-(dimethylphosphoryl)phenyl)amino)pyrimidin-2-yl)amino)-5-methoxy-2-(1-methyl-1H-pyrazol-4-yl)phenyl)piperazin-1-yl)azetidin-1-yl)-2-(2,6-dioxopiperidin-3-yl)isoindoline-1,3-dione] | < 100 nM | 35 nM
COc1cc(N2CCC(CN3CCN(c4ccc(C5CCC(=O)NC5=O)cc4)CC3)CC2)c(-c2cnn(C)c2)cc1Nc1ncc(Cl)c(Nc2ccc(C3CC3)cc2P(C)(C)=O)n1 (stereo not shown) [Compound 152, 3-(4-(4-((1-(4-((5-chloro-4-((4-cyclopropyl-2-(dimethylphosphoryl)phenyl)amino)pyrimidin-2-yl)amino)-5-methoxy-2-(1-methyl-1H-pyrazol-4-yl)phenyl)piperidin-4-yl)methyl)piperazin-1-yl)phenyl)piperidine-2,6-dione] | < 100 nM | 68 nM
COc1cc(N2CCC(CN3CCN(c4ccc(C5CCC(=O)NC5=O)c(F)c4)CC3)CC2)c(-c2cnn(C)c2)cc1Nc1ncc(Cl)c(Nc2ccc(C3CC3)cc2P(C)(C)=O)n1 (stereo not shown) [Compound 153, 3-(4-(4-((1-(4-((5-chloro-4-((4-cyclopropyl-2-(dimethylphosphoryl)phenyl)amino)pyrimidin-2-yl)amino)-5-methoxy-2-(1-methyl-1H-pyrazol-4-yl)phenyl)piperidin-4-yl)methyl)piperazin-1-yl)-2-fluorophenyl)piperidine-2,6-dione] | < 100 nM | 73 nM
COc1cc(N2CCC(CN3CCN(c4ccc(C5CCC(=O)NC5=O)c(F)c4)CC3)CC2)c(-c2cnn(C)c2)cc1Nc1ncc(Cl)c(Nc2ccccc2P(C)(C)=O)n1 (stereo not shown) [Compound 154, 3-(4-(4-((1-(4-((5-chloro-4-((2-(dimethylphosphoryl)phenyl)amino)pyrimidin-2-yl)amino)-5-methoxy-2-(1-methyl-1H-pyrazol-4-yl)phenyl)piperidin-4-yl)methyl)piperazin-1-yl)-2-fluorophenyl)piperidine-2,6-dione] | < 100 nM | 46 nM
COc1cc(N2CCC(CN3CCN(c4ccc(C5CCC(=O)NC5=O)cc4)CC3)CC2)c(-c2cnn(C)c2)cc1Nc1ncc(Cl)c(Nc2ccc(-c3ccccc3)cc2P(C)(C)=O)n1 (stereo not shown) [Compound 155, 3-(4-(4-((1-(4-((5-chloro-4-((3-(dimethylphosphoryl)-[1,1′-biphenyl]-4-yl)amino)pyrimidin-2-yl)amino)-5-methoxy-2-(1-methyl-1H-pyrazol-4-yl)phenyl)piperidin-4-yl)methyl)piperazin-1-yl)phenyl)piperidine-2,6-dione] | < 100 nM | 43 nM
COc1cc(N2CCC(CN3CCN(c4ccc(C5CCC(=O)NC5=O)c(F)c4)CC3)CC2)c(-c2cnn(C)c2)cc1Nc1ncc(Cl)c(Nc2ccc(-c3ccccc3)cc2P(C)(C)=O)n1 (stereo not shown) [Compound 156, 3-(4-(4-((1-(4-((5-chloro-4-((3-(dimethylphosphoryl)-[1,1′-biphenyl]-4-yl)amino)pyrimidin-2-yl)amino)-5-methoxy-2-(1-methyl-1H-pyrazol-4-yl)phenyl)piperidin-4-yl)methyl)piperazin-1-yl)-2-fluorophenyl)piperidine-2,6-dione] | < 100 nM | 64 nM
COc1cc(N2CCC(CN3CCN(c4ccc(NC5CCC(=O)NC5=O)cc4F)CC3)CC2)c(-c2cnn(C)c2)cc1Nc1ncc(Cl)c(Nc2ccccc2P(C)(C)=O)n1 (stereo not shown) [Compound 157, 3-((4-(4-((1-(4-((5-chloro-4-((2-(dimethylphosphoryl)phenyl)amino)pyrimidin-2-yl)amino)-5-methoxy-2-(1-methyl-1H-pyrazol-4-yl)phenyl)piperidin-4-yl)methyl)piperazin-1-yl)-3-fluorophenyl)amino)piperidine-2,6-dione] | < 100 nM | 29 nM

Other lines, results leading:

IC50 (read-out: IC50 (class symbol)) | IC50 [1] | SMILES
< 100 nM | 26 nM | COc1cc(N2CCC(CN3CCN(c4ccc(NC5CCC(=O)NC5=O)cc4F)CC3)CC2)c(-c2cnn(C)c2)cc1Nc1ncc(Cl)c(Nc2ccc(C3CC3)cc2P(C)(C)=O)n1 (stereo not shown) [Compound 158, 3-((4-(4-((1-(4-((5-chloro-4-((4-cyclopropyl-2-(dimethylphosphoryl)phenyl)amino)pyrimidin-2-yl)amino)-5-methoxy-2-(1-methyl-1H-pyrazol-4-yl)phenyl)piperidin-4-yl)methyl)piperazin-1-yl)-3-fluorophenyl)amino)piperidine-2,6-dione]
< 100 nM | 21 nM | COc1cc(N2CCC(CN3CCN(c4ccc(NC5CCC(=O)NC5=O)cc4F)CC3)CC2)c(-c2cnn(C)c2)cc1Nc1ncc(Cl)c(Nc2ccc(F)cc2P(C)(C)=O)n1 (stereo not shown) [Compound 159, 3-((4-(4-((1-(4-((5-chloro-4-((2-(dimethylphosphoryl)-4-fluorophenyl)amino)pyrimidin-2-yl)amino)-5-methoxy-2-(1-methyl-1H-pyrazol-4-yl)phenyl)piperidin-4-yl)methyl)piperazin-1-yl)-3-fluorophenyl)amino)piperidine-2,6-dione]
100 to 500 nM | 111 nM | COc1cc(N2CCN(c3ccc4c(c3)C(=O)N(C3CCC(=O)NC3=O)C4=O)CC2)c(-c2cnn(C)c2)cc1Nc1ncc(Br)c(Nc2ccccc2P(C)(C)=O)n1 (stereo not shown) [Compound 169, 5-(4-(4-((5-bromo-4-((2-(dimethylphosphoryl)phenyl)amino)pyrimidin-2-yl)amino)-5-methoxy-2-(1-methyl-1H-pyrazol-4-yl)phenyl)piperazin-1-yl)-2-(2,6-dioxopiperidin-3-yl)isoindoline-1,3-dione]
< 100 nM | 59 nM | COc1cc(N2CCN(C3CCN(CC4CCN(c5ccc6c(c5)C(=O)N(C5CCC(=O)NC5=O)C6=O)CC4)CC3)CC2)c(-c2cnn(C)c2)cc1Nc1ncc(Cl)c(Nc2ccc3nccnc3c2P(C)(C)=O)n1 (stereo not shown) [Trifluoroacetate of compound 12, 5-(4-((4-(4-(4-((5-chloro-4-((5-(dimethylphosphoryl)quinoxalin-6-yl)amino)pyrimidin-2-yl)amino)-5-methoxy-2-(1-methyl-1H-pyrazol-4-yl)phenyl)piperazin-1-yl)piperidin-1-yl)methyl)piperidin-1-yl)-2-(2,6-dioxopiperidin-3-yl)isoindoline-1,3-dione]
< 100 nM | 37 nM | COc1cc(N2CCC(C3CCN(CC4CCN(c5ccc6c(c5)C(=O)N(C5CCC(=O)NC5=O)C6=O)CC4)CC3)CC2)c(-c2cnn(C)c2)cc1Nc1ncc(Cl)c(Nc2ccc3nccnc3c2P(C)(C)=O)n1 (stereo not shown) [Trifluoroacetate of compound 13, 5-(4-((1′-(4-((5-chloro-4-((5-(dimethylphosphoryl)quinoxalin-6-yl)amino)pyrimidin-2-yl)amino)-5-methoxy-2-(1-methyl-1H-pyrazol-4-yl)phenyl)-[4,4′-bipiperidin]-1-yl)methyl)piperidin-1-yl)-2-(2,6-dioxopiperidin-3-yl)isoindoline-1,3-dione]
< 100 nM | 42 nM | COc1cc(N2CCC(N3CCC(CN4CCN(c5ccc6c(c5)C(=O)N(C5CCC(=O)NC5=O)C6=O)CC4)CC3)CC2)c(-c2cnn(C)c2)cc1Nc1ncc(Br)c(Nc2ccc3nccnc3c2P(C)(C)=O)n1 (stereo not shown) [Trifluoroacetate of compound 19, 5-(4-((1′-(4-((5-bromo-4-((5-(dimethylphosphoryl)quinoxalin-6-yl)amino)pyrimidin-2-yl)amino)-5-methoxy-2-(1-methyl-1H-pyrazol-4-yl)phenyl)-[1,4′-bipiperidin]-4-yl)methyl)piperazin-1-yl)-2-(2,6-dioxopiperidin-3-yl)isoindoline-1,3-dione]
< 100 nM | 14 nM | COc1cc(N2CCC3(CCN(CC4CCN(c5ccc6c(c5)C(=O)N(C5CCC(=O)NC5=O)C6=O)CC4)CC3)CC2)c(-c2cnn(C)c2)cc1Nc1ncc(Br)c(Nc2ccc3nccnc3c2P(C)(C)=O)n1 (stereo not shown) [Trifluoroacetate of compound 20, 5-(4-((9-(4-((5-bromo-4-((5-(dimethylphosphoryl)quinoxalin-6-yl)amino)pyrimidin-2-yl)amino)-5-methoxy-2-(1-methyl-1H-pyrazol-4-yl)phenyl)-3,9-diazaspiro[5.5]undecan-3-yl)methyl)piperidin-1-yl)-2-(2,6-dioxopiperidin-3-yl)isoindoline-1,3-dione]
